Source: PMC12222587, “A2B adenosine receptor-triggered intracellular calcium mobilization: Cell type-dependent involvement of Gi, Gq, Gs proteins and protein kinase C” (Purinergic Signalling, 2025)
“Also recorded” adds a separate entry of the source. Where two headings read alike, the source gives them in different places. *1 amine or outer side, *2 acyl side, *3 side chain or, on linkers, in order; H or OH if unused. Where a SMILES comes first, the peptide text is derived from it. Bridges are numbered along the chain shown (N, C = ends). [ ]: non-standard residue; d: D form. X2 = CC(=O)NC(C(=O)OC(C(C)C)C(N[*:1])C(=O)[*:2])C(O)C(C)C; PhLac = O=C(O)[CH](O)Cc1ccccc1; NMeT = CN[CH](C(=O)O)[CH](C)O; NMeA = CN[CH](C)C(=O)O; NMeDha = C=C(NC)C(=O)O

Columns and labels:
A2BAR [1] = molecular target: T1, A2BAR (Homo sapiens, UniProt P29275); assay: Intracellular calcium mobilization, T24 bladder cancer cells, native A2BAR (NECA); assay type: cell-based
T1 sequence (P29275 1-332): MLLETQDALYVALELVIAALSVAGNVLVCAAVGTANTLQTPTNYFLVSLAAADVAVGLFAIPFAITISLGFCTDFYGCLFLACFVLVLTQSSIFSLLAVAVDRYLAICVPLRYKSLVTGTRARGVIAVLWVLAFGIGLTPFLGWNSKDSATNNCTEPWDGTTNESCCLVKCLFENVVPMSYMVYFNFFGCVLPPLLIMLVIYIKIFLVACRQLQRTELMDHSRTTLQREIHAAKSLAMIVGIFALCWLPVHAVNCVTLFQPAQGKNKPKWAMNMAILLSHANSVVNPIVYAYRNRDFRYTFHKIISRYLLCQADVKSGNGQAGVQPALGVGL

P2Y1R [2] = molecular target: T2, P2Y1R (Homo sapiens, UniProt P47900); assay: Intracellular calcium mobilization, T24 bladder cancer cells, native P2Y1R (MRS2365); assay type: cell-based; conditions: YM 300 nM, FR 300 nM, PTX 200 ng/ml overnight
T2 sequence (P47900 whole entry): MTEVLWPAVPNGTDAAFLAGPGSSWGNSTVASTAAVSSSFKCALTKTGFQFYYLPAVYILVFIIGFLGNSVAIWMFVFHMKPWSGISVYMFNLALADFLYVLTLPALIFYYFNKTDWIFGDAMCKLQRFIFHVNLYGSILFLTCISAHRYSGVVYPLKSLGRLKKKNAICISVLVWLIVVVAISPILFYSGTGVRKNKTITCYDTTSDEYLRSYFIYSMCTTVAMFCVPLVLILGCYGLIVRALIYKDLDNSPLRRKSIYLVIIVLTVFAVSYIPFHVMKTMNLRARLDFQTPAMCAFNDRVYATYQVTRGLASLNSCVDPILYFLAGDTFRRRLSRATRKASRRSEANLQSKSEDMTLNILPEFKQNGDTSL

β2-adrenergic receptor = β2-adrenergic receptor (Homo sapiens, UniProt P07550); assay: Intracellular calcium mobilization, T24 bladder cancer cells, endogenous β2-adrenergic receptor; assay type: cell-based; conditions: T24 cells; for Effect on formoterol-induced calcium mobilization (β2-adrenergic receptor): PTX 200 ng/ml, CTX 500 ng/ml
A2BAR [3] = molecular target: T1, A2BAR; design: method as in PMID 24853985; conditions: T24 cells; cited from earlier work
P2Y1R [4] = molecular target: T2, P2Y1R; assay: Intracellular calcium mobilization, HEK293 cells, native P2Y1R (MRS2365); assay type: cell-based; conditions: for Effect on P2Y1R (MRS2365)-mediated calcium mobilization: Gq/11 siRNA 250 nM, PTX 200 ng/ml overnight, FR, YM 20 min before agonist
A1AR [5] = molecular target: T3, A1AR (Homo sapiens, UniProt P30542); assay: Intracellular calcium mobilization, HEK293 cells expressing recombinant A1AR (CCPA); assay type: cell-based; conditions: for Effect on A1AR (CCPA)-mediated calcium mobilization: HEK293 cells overexpressing A1AR, Gq/11 siRNA 250 nM, PTX 200 ng/ml overnight, FR, YM 20 min before agonist
T3 construct: expressed in transfected cells
T3 sequence (P30542 1-326): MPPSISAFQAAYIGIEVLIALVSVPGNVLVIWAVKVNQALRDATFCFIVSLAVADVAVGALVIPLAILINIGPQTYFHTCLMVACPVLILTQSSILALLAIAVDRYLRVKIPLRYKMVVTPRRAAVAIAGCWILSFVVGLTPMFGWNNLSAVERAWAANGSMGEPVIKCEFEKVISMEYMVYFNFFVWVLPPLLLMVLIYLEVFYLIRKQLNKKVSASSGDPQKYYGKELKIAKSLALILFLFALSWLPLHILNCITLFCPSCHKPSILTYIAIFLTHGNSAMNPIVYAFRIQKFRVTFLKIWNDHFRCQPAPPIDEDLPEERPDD

LPA receptor = assay: Intracellular calcium mobilization, HEK293 cells, endogenous LPA receptor; assay type: cell-based, human
A1AR [6] = assay: Calcium increase, CHO cells expressing recombinant A1AR (CCPA); assay type: cell-based; conditions: recombinant A1 receptor, CCPA 1 µM, read-out: IC50 in inhibiting the effect of CCPA (Ca2+ increase)
M2 muscarinic receptor = assay: Calcium increase, CHO cells expressing recombinant M2 muscarinic receptor (carbachol); assay type: cell-based; conditions: carbachol 10 µM, read-out: IC50 in inhibiting the effect of carbachol (Ca2+ increase)
A1AR [7] = molecular target: T3, A1AR; assay: cAMP accumulation, HEK293 cells, A1AR-mediated inhibition of forskolin-stimulated cAMP (CCPA); assay type: cell-based
Method: (§1) HEK293, T24 bladder cancer and MDA-MB-231 breast cell lines were cultured in DMEM medium containing 10% fetal bovine serum, 100 units/ml penicillin, 100 μg/ml streptomycin, and 2 μmol/ml glutamine. For the assay of 3′,5′-cyclic adenosine monophosphate (cAMP), cells were plated in 96-well (4 × 10^4 cells/well) clear plates in 100 μl of medium overnight. Cell culture medium was then replaced with 80 µl HBSS buffer containing 20 mM HEPES, phosphodiesterase inhibitor rolipram (10 μM), and 3 units/ml adenosine deaminase (Worthington Biochemical, Lakewood, NJ, USA) for 30 min followed by agonist addition to the mixture, which was then incubated for 20 min. The treatment of YM or FR was 20 min before agonist addition.

A2AAR = molecular target: T4, A2AAR (Homo sapiens, UniProt P29274); assay: cAMP accumulation, HEK293 cells, A2AAR-mediated stimulation (CGS21680); assay type: cell-based
T4 construct: host or cells: HEK293
T4 sequence (P29274 whole entry): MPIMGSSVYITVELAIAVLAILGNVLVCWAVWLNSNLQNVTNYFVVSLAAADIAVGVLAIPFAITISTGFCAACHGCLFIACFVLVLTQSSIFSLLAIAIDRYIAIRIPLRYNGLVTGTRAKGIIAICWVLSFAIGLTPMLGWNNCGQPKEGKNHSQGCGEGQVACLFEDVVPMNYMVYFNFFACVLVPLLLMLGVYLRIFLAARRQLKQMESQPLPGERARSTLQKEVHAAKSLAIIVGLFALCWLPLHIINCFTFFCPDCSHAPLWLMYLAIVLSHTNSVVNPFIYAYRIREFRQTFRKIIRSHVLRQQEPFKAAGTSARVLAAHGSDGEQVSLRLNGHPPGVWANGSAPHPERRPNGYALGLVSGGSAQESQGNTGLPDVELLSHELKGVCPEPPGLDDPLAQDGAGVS
Method: as §1

P2Y1R [8] = conditions: 1321N1 astrocytoma (P2Y1-overexpressing); ref Gao and Jacobson, 2017 [29]; cited from earlier work
A1AR [9] = conditions: FR 100 nM; cited from earlier work
HMC-1 cells = conditions: HMC-1 cells; ref Feoktistov et al., 1995 [30]; cited from earlier work
[10] = T24 cells, YM 300 nM, FR 300 nM, PTX 200 ng/ml, CTX 500 ng/ml overnight, other inhibitors 20 min before NECA

Compound | Effect on native A2BAR (NECA)-triggered calcium mobilization (A2BAR [1]; [10]) | Effect on native P2Y1R (MRS2365)-triggered calcium mobilization (P2Y1R [2]) | Effect on formoterol-induced calcium mobilization (β2-adrenergic receptor) (β2-adrenergic receptor; FR 300 nM, YM 1 µM, PMA 1 µM) | Effect on P2Y1R (MRS2365)-mediated calcium mobilization (P2Y1R [4]) | Effect on A1AR (CCPA)-mediated calcium mobilization (A1AR [5]) | Sensitivity of P2Y1R calcium mobilization to modulator (P2Y1R [8]) | further results
CCCCCCCCCCCCCC(=O)O[C@@H]1[C@@H](C)[C@@]2(O)[C@@H](C=C(CO)C[C@]3(O)C(=O)C(C)=C[C@@H]23)[C@@H]2C(C)(C)[C@]12OC(C)=O [PMA, phorbol 12-myristate 13-acetate] | partially diminished; also recorded: PMA partially sensitive (8) | completely eliminated | completely diminished; also recorded: PMA completely sensitive (8) |  |  |  | Effect on isoproterenol-induced calcium mobilization (β2-adrenergic receptor) (β2-adrenergic receptor; FR 300 nM, PMA 1 µM): completely diminished
CCCn1c(=O)[nH]c2nc(-c3ccc(S(=O)(=O)N4CCN(c5ccc(Cl)cc5)CC4)cc3)[nH]c2c1=O [PSB603] |  |  |  |  |  |  | Effect on native A2BAR (NECA)-triggered calcium mobilization (A2BAR [1]): completely inhibited; Effect on NECA-induced Ca2+ increase (A2BAR [3]): completely blocked
COc1ccc2c(c1)CC[C@@H]1[C@@H]2CC[C@]2(C)[C@@H](NCCCCCCN3C(=O)C=CC3=O)CC[C@@H]12 [U73122] | completely inhibited |  |  |  |  |  | 
C=C1C(=O)NC(C)C(=O)N(C)C(C)C(=O)NC(C(OC(=O)C(NC(C)=O)C(O)C(C)C)C(C)C)C(=O)N(C)C(C(C)OC)C(=O)OC(C)C(NC(C)=O)C(=O)OC(Cc2ccccc2)C(=O)N1C (stereo not drawn) [YM, YM254890] (Ac-T[PhLac][NMeDha]A[NMeA][X2][NMeT](Me); ester 1-C; configuration not given here) | little if any effect; also recorded: FR and YM insensitive (4); Gαq/11 siRNA insensitive (4) | completely inhibited; also recorded: YM – fully sensitive (4) | YM – partially sensitive (6) | inhibited; also recorded: fully sensitive | inhibited; also recorded: YM and FR – fully sensitive (2) | YM sensitive | IC50 (P2Y1R [4]; agonist MRS2365 1 µM, read-out: IC50 to inhibit P2Y1R-mediated calcium mobilization): 12.8 ± 4.1 nM; IC50 (A1AR [5]; HEK293 cells, overexpressed A1AR, agonist CCPA 1 µM, read-out: IC50 for inhibition of A1AR-mediated calcium mobilization): 12.9 ± 2.52 nM; Effect on LPA-induced intracellular calcium mobilization (LPA receptor; YM 300 nM): completely inhibited; IC50 (A1AR [6]): 11.6 nM; IC50 (M2 muscarinic receptor): 9.53 nM; Effect on A1AR-mediated inhibition of cAMP accumulation (A1AR [7]): did not affect; Effect on A2AAR-mediated stimulation of cAMP accumulation (A2AAR): did not affect; Inhibition of the maximum effect (Emax) of formoterol, calcium mobilization (β2-adrenergic receptor; YM 1 µM): 78%
Pertussis toxin [PTX] | diminished; also recorded: PTX sensitive (5) | no effect; also recorded: PTX insensitive (5) | did not produce significant attenuation; also recorded: PTX not sensitive (6) | no effect; also recorded: PTX insensitive (1) | completely inhibited; also recorded: PTX sensitive (1) | PTX insensitive | Effect on A1AR-mediated Akt1/2/3 phosphorylation (A1AR [9]): completely inhibited; Sensitivity of NECA-induced Ca2+ increase to toxin (HMC-1 cells): ^b NECA-induced Ca^2+ increase in HMC-1 cells was insensitive to CTX and PTX, Feoktistov et al., 1995 [30]
lysophosphatidic acid [LPA] |  |  |  |  |  |  | EC50 (LPA receptor; endogenous LPA receptor, read-out: EC50 of induced intracellular calcium mobilization): 4590 nM
